The target of assay [1] is T1, NaV1.8 (Homo sapiens, UniProt Q9Y5Y9). Put plainly: Activity against NaV1.8 channel (Table 4). The format is cell-based. The protocol: Compounds of the invention are useful as antagonists of voltage-gated sodium ion channels. Antagonist properties of test compounds were assessed as follows. Cells expressing the NaV of interest were placed into microtiter plates. After an incubation period, the cells were stained with fluorescent dyes sensitive to the transmembrane potential. The test compounds were added to the microtiter plate. The cells were stimulated with either a chemical or electrical means to evoke a NaV dependent membrane potential change from unblocked channels, which was detected and measured with trans-membrane potential-sensitive dyes. Antagonists were detected as a decreased membrane potential response to the stimulus. The optical membrane potential assay utilized voltage-sensitive FRET sensors described by Gonzalez and Tsien (See, Gonzalez, J. E. and R. Y. Tsien (1995) “Voltage sensing by fluorescence resonance energy transfer in single cells” Biophys J 69(4): 1272-80, and Gonzalez, J. E. and R. Y. Tsien (1997) “Improved indicators of cell membrane potential that use fluorescence resonance energy transfer” Chem Biol 4(4): 269-77) in combination with instrumentation for measuring fluorescence changes such as the Voltage/Ion Probe Reader (VIPR®) (See, Gonzalez, J. E., K. Oades, et al. (1999) “Cell-based assays and instrumentation for screening ion-channel targets” Drug Discov Today 4(9): 431-439). B) VIPR® optical membrane potential assay method with chemical stimulation
24 hours before the assay on VIPR, CHO cells endogenously expressing a NaV1.2 type voltage-gated NaV are seeded in 96-well poly-lysine coated plates at 60,000 cells per well. […] The cells are then incubated for 20-30 minutes. • 7) Once the incubation is complete, the cells are ready to be assayed on VIPR® with a sodium addback protocol. […]
The following is an example of how NaV1.3 inhibition activity is measured using the optical membrane potential method#2. […]

The target of a further assay is NaV1.9 (Homo sapiens, UniProt Q9UI33). The note with it: read-out: TTX IC50; cited from earlier work.
A further assay deals with NaV1.3 (Homo sapiens, UniProt Q9NY46). The settings on record: read-out: TTX IC50; cited from earlier work.
Another assay concerns the target NaV1.6 (Homo sapiens, UniProt Q9UQD0). The settings on record: read-out: TTX IC50; cited from earlier work.
The next assay addresses NaV1.2 (Homo sapiens, UniProt Q99250). The note with it: read-out: TTX IC50; cited from earlier work.
In another assay the target is NaV1.1 (Homo sapiens, UniProt P35498). The settings on record: read-out: TTX IC50; cited from earlier work.
In assay [2] the target is T1, NaV1.8. The settings on record: read-out: TTX IC50; cited from earlier work.
For a further assay, the system named is neuropathic pain. The settings on record: in vivo; cited from earlier work.

What is called IC50 is the concentration that inhibits the measured activity by half.

Where two headings read alike, the source gives them in different places. Where only a bound is given, the exact number is not on record here.

Sequence of NaV1.6 (Q9UQD0 whole entry, looked up): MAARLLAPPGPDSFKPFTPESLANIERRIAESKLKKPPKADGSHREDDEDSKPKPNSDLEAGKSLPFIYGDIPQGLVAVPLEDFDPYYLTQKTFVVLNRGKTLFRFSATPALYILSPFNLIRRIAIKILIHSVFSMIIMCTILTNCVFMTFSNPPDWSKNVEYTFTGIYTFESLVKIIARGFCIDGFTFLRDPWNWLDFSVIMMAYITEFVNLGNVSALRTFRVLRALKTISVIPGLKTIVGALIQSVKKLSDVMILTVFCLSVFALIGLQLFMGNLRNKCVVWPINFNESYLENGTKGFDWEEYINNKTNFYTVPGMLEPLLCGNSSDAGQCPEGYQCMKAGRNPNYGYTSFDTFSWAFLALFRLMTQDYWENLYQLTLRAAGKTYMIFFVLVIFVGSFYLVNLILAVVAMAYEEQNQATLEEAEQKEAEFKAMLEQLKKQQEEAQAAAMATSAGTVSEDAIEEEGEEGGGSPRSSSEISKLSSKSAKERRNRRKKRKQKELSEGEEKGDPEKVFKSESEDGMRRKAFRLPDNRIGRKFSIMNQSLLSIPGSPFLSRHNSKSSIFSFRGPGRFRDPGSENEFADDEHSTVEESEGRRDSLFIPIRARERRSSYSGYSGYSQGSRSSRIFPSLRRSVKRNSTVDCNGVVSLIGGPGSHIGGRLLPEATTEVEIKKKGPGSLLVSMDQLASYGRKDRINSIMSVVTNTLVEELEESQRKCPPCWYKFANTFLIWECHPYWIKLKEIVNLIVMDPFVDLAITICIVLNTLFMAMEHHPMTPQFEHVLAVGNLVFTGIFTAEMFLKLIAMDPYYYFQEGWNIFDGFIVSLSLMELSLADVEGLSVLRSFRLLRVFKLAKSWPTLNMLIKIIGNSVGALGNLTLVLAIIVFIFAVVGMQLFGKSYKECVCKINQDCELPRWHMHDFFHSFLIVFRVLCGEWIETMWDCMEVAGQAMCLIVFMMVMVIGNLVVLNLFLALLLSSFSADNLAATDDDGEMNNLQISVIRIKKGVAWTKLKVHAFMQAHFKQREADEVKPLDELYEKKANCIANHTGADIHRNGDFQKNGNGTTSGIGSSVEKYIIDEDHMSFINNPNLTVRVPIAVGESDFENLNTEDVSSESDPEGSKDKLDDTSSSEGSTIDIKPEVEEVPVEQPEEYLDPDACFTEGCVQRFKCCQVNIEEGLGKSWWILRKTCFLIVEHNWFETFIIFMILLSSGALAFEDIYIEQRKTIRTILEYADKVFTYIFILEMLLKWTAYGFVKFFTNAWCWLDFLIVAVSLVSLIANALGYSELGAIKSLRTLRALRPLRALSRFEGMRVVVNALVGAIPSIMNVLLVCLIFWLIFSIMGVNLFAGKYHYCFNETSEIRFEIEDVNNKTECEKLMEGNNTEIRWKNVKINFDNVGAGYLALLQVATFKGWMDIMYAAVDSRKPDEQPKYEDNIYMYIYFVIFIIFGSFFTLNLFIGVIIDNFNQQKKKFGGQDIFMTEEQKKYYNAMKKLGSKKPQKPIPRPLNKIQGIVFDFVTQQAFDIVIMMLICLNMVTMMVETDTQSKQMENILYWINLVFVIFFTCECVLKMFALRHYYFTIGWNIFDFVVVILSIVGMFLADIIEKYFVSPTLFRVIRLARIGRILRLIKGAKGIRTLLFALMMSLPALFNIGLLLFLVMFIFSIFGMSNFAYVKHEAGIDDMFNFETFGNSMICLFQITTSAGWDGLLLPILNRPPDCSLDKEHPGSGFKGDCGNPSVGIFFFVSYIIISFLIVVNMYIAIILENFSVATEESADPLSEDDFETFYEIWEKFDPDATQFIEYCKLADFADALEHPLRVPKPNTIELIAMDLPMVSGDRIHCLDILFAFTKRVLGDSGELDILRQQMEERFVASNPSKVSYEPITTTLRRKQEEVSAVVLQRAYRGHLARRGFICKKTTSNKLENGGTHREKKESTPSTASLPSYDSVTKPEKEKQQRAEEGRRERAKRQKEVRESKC
Sequence of NaV1.3 (Q9NY46 whole entry, looked up): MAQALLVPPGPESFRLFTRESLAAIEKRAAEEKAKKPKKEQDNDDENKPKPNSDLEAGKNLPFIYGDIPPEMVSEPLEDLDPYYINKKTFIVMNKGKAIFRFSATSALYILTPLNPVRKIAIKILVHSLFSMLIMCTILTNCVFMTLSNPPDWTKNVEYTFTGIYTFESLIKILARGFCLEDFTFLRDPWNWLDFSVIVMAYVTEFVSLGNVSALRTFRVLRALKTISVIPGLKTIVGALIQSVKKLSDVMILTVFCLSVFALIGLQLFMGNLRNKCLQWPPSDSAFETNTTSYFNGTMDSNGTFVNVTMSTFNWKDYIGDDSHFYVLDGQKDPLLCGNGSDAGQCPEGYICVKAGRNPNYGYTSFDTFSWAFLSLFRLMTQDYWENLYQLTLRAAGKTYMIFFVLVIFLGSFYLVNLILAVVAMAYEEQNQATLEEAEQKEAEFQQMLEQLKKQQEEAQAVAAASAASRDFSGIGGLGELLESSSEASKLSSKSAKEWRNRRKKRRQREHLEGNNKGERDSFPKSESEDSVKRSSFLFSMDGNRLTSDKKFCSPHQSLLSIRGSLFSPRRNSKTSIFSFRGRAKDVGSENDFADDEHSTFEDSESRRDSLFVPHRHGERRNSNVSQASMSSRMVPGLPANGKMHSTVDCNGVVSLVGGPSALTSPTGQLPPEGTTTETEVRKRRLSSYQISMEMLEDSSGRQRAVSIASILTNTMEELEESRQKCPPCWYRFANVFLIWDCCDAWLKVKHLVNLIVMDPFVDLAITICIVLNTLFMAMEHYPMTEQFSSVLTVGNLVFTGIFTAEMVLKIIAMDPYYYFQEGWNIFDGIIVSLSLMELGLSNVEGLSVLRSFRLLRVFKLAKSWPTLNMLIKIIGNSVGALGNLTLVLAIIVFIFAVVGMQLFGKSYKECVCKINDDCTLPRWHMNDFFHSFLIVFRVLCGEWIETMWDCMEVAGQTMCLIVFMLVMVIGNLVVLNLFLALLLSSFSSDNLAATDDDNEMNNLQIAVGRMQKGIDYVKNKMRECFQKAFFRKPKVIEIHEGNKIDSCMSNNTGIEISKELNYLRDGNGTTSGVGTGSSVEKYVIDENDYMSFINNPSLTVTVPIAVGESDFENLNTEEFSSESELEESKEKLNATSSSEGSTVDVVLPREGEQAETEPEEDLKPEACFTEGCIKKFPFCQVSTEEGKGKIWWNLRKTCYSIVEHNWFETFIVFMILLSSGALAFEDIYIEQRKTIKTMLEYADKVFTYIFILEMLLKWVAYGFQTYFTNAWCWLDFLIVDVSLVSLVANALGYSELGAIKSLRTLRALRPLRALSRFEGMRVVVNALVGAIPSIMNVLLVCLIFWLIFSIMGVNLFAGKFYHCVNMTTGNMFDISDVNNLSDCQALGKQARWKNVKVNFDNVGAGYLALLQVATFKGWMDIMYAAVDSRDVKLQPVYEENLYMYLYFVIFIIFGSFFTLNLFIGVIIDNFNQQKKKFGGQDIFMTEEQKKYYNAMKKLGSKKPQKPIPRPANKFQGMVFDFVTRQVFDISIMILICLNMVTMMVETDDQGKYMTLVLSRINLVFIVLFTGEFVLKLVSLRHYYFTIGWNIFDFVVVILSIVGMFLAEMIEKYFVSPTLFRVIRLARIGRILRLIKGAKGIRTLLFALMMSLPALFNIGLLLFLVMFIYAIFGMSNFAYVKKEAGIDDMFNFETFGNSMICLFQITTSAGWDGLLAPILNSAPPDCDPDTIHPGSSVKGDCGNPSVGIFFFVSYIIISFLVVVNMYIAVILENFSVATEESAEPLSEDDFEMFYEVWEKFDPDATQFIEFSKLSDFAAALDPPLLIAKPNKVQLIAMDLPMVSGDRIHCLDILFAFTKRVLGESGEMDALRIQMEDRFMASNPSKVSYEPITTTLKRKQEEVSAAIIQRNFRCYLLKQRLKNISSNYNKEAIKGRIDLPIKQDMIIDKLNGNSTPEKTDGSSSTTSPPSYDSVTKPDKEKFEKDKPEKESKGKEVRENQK

As to `CC(C)COC(=O)N1CCN(c2nc(-c3ccccc3O)cc3ccccc23)CC1` [Compound 3, Isobutyl 4-(3-(2-hydroxyphenyl)isoquinolin-1-yl)piperazine-1-carboxylate], the IC50 on NaV1.8 [1] was > 15000 nM.

In the case of `NC1=N[C@H](O)[C@H]2[C@H]3O[C@]4(O)O[C@@H]([C@@H](O)[C@@]2(N1)[C@@H]4O)[C@]3(O)CO` [TTX, tetrodotoxin], the half-maximal inhibitory concentration (IC50) on NaV1.9 was 1000 nM; on NaV1.3 it was 15 nM; on NaV1.6, 6 nM; on NaV1.2 it was 10 nM; at NaV1.1 it was 10 nM; at NaV1.8 [2] it was > 50000 nM.

Take `CC(C)COC(=O)N1CCN(c2nc(-c3ccccc3C(F)F)cc3ccccc23)CC1` [Compound 4, Isobutyl 4-(3-(2-(difluoromethyl)phenyl)isoquinolin-1-yl)piperazine-1-carboxylate]: the IC50 on NaV1.8 [1] was > 15000 nM.

For `CC(C)COC(=O)NC1CCN(c2nc(-c3ccccc3O)cc3ccccc23)CC1` [Compound 1, Isobutyl 1-(3-(2-hydroxyphenyl)isoquinolin-1-yl)piperidin-4-ylcarbamate], the IC50 on NaV1.8 [1] was in the range of 10000 to 15000 nM.

As to `NCC1(CC(=O)O)CCCCC1` [Gabapentin], the “share of patients in whom it works” value in the assay on neuropathic pain was 60%.
